Experimental data from PMC11539229 (Antimicrobial Agents and Chemotherapy, 2024).
In brackets after ≈: the same amount, converted by molar mass. Read-outs that look alike come from different tables or passages of the source.

Tests used:
physchem = type: physicochemical
Description: Solubility assays were performed using a miniaturized shake flask method. Stock solutions (10 mM) of each test compound were used to prepare calibration standards (10–220 μM) in DMSO and to spike (1:50) duplicate aqueous samples of FaSSIF (simulating fasting state biorelevant media, pH 6.5) with a final DMSO concentration of 2%. After shaking for 2 h at 25°C, the solutions were filtered and analyzed by means of high-performance liquid chromatography with diode-array detection (HPLC-DAD) (Agilent 1200 Rapid Resolution HPLC with a diode array detector). Best-fit calibration curves were constructed using the calibration standards, which were used to determine the aqueous sample solubility ([32]).

recombinant InhA = recombinant InhA (Mycobacterium tuberculosis, UniProt P9WGR1); experiment: Inhibition of recombinant InhA; type: biochemical, M. tuberculosis
recombinant InhA, sequence (P9WGR1 whole entry, looked up): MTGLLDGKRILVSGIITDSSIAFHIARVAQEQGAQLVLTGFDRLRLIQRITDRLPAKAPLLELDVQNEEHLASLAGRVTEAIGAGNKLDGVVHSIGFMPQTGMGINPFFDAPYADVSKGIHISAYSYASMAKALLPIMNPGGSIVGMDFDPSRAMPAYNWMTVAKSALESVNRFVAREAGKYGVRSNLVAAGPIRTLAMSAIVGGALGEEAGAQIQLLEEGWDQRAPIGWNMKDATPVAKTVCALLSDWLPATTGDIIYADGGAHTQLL
Description: GSK138 inhibited recombinant InhA with an IC50 of 0.04 µM. The minimum inhibitory concentration (MIC) was 1 µM against M. tuberculosis H37Rv, and GSK138 retained its activity against intracellular bacteria growing inside THP-1-derived macrophages in vitro (MIC 0.9 µM).

M. tuberculosis H37Rv = experiment: Extracellular MIC, broth dilution with resazurin; type: cell-based; details: Mycobacterium tuberculosis, read-out: Mtb MIC
Description: MICs against the H37Rv strain were determined by broth dilution assay in Middlebrook 7H9 medium supplemented with 10% ADC. After incubating at 37°C for 6 days, 25-µL resazurin solution (one tablet in 30-mL sterile PBS) was added to each well. Following incubation at 37°C for two additional days, the lowest concentration of drug that inhibited 90% of resazurin conversion compared to internal DMSO control wells with no drug added was used to define MIC values.

[1] = test system: H37Rv-Luc inside THP-1-derived macrophages; experiment: Intracellular MIC in THP-1-derived macrophages, luciferase read-out; type: cell-based, M. tuberculosis; details: Mycobacterium tuberculosis, mean ± SD, read-out: Mtb intracell MIC
HepG2 cells [2] = type: cell-based; details: human, 48 h
Description: HepG2 cells were cultured using Eagle’s minimum essential media (EMEM) supplemented with 10% heat-inactivated FBS, 1% non-essential amino acid (NEAA), and 1% penicillin/streptomycin. Prior to addition of the cell suspension, 250 nL of test compounds per well was pre-dispensed in tissue culture-treated black clear-bottomed 384-well plates (Greiner, cat. no. 781091) with an Echo 555 instrument. After that, 25 µL of HepG2 (cat. no. ATCC HB-8065) cells (∼3,000 cells/well) grown to confluency in EMEM supplemented with 10% heat-inactivated FBS, 1% NEAA, and 1% penicillin/streptomycin were added to each well with the reagent dispenser. Plates were allowed to incubate at 37°C with 20% O2 and 5% CO2 for 48 hrs. After incubation, the plates were equilibrated to room temperature before ATP levels were measured with the CellTiter Glo kit (Promega) as the cell viability read-out. 25 µL of CellTiter Glo substrate dissolved in the buffer was added to each well. Plates were incubated at room temperature for 10 min for stabilization of luminescence signal and read on a View Lux luminometer with excitation and emission filters of 613 and 655 nm, respectively. The Tox50 value corresponds to the concentration of the compound necessary to inhibit 50% of cell growth.

HepG2 cells [3] = experiment: Cell health assay (three-parameter imaging); type: cell-based, human
Description: This is a three-parameter automated imaging cell-based assay to measure the cytotoxic effect of compounds in human liver-derived HepG2 cells. Using fluorescent staining, we measured the following key parameters in this assay: nuclear size, mitochondrial membrane potential and plasma membrane permeability. HepG2 cells (ATCC HB-8065) were incubated with the test compounds in 384-well plates. After 48 h, the staining cocktail was added. Hoechst 33342 was used to stain nuclei and quantify changes in nuclear morphology. Tetramethylrhodamine, methyl ester is a cationic dye that accumulates in healthy mitochondria that maintain a mitochondrial membrane potential and leaks out of mitochondria when the mitochondrial membrane potential is dissipated. TOTO-3 iodide labels nuclei of permeabilized cells and is used to measure plasma membrane permeability. Following 45 min of incubation with these stains, the plates were sealed using a black seal for reading on an INCell Analyzer 2000 (GE Healthcare). Each parameter measurement produces the percentages of cells which are “live” or “dead.” The IC50 is defined as the compound concentration that inhibits 50% of cell growth.

[4] = Description: The Ames assay was carried out as previously described ([34]) using all strains.
[5] = type: in vitro ADME
Description: To assess the susceptibility of GSK138 to P450-mediated phase I metabolism, metabolic stability was determined during incubation in CD1 mouse, Sprague Dawley rat, beagle dog, and human liver microsomes.
Human and animal microsomes and compounds were pre-incubated at 37°C prior to addition of NADPH to final protein concentration of 0.5 mg/mL and a final compound concentration of 0.5 µM. Quantitative analysis was performed using specific liquid chromatography-tandem mass spectrometry (LC-MS/MS) conditions. The half-life, elimination rate constant, and intrinsic clearance (mL/min/g tissue) were determined. The well-stirred model was used to translate to in vivo CI values (mL/min/kg).

in vivo = experiment: in vivo; set-up: species or system C57BL/6 mice; details: iv, 1 mg/kg
Description: To determine the pharmacokinetic parameters, GSK138 was administered intravenously [formulation: 5% dimethyl sulfoxide (DMSO)/20% Encapsin in saline solution] as a single bolus dose in C57BL/6 mice at a target dose of 1 mg/kg. All pharmacokinetic parameters were determined in whole blood (Table 1). A moderate clearance and a moderate volume of distribution were observed.
Single-dose pharmacokinetics experiments were performed in female C57BL/6 mice, 21–29 g, obtained from Charles River Laboratories (Wilmington, MA, USA) and housed in cages in groups of three animals with water and food ad libitum. Animals were maintained for 1 week before the experiment.
The compound was dissolved in 20% Encapsin (Sigma-Aldrich), 5% DMSO (Sigma-Aldrich) in saline solution (Sigma-Aldrich) for intravenous administration, and in 1% methylcellulose (Sigma-Aldrich) in water for oral administration.
For PK analysis, 25 µL of tail blood was collected by microsampling at 0.08, 0.25, 0.5, 1.0, 2.0, 4.0, 6.0, 8.0, and 24.0 h for intravenous pharmacokinetics and 0.25, 0.5, 1.0, 2.0, 4.0, 6.0, 8.0, and 24.0 h for oral pharmacokinetics.

With `Cc1csc([C@](C)(O)c2nnc(Nc3cc(C)n(Cc4csc(C)n4)n3)s2)n1` [GSK138] the “solubility in FaSSIF” value (physchem) was “high”, the solubility at 2 h (physchem; pH 6.5) was 140 to 320 µM (≈ 60.7 to 139 µg/mL) and the IC50 (recombinant InhA) was 40 nM. The MIC (M. tuberculosis H37Rv) was 1 µM (≈ 0.434 µg/mL), the MIC [1] was 0.9 µM (≈ 0.39 µg/mL) and the “HepG2 cytotoxicity Tox50” value (HepG2 cells [2]) was >100 µM. The “Cell health IC50 (nuclear size, mitochondrial membrane potential, and plasma membrane permeability)” value (HepG2 cells [3]; HepG2, 48 h) was >199500 nM, the “effect in the cell health assay” value (HepG2 cells [3]; membrane, nuclear and mitochondrial damages) was “no effect up to the highest concentration tested (200 µM)” and the Ames test [4] was “Negative”. The “in vitro clearance in liver microsomes” value ([5]; dog) was “moderate”, the “in vitro clearance in liver microsomes” value ([5]; human) was “low” and the “In vitro Clint dog” value ([5]; microsomes) was 1.7 mL/min/g tissue. The “In vitro Clint human” value ([5]; microsomes) was 0.3 mL/min/g tissue, the “In vitro Clint mouse” value ([5]; microsomes) was 4.4 mL/min/g tissue and the “In vitro Clint rat” value ([5]; microsomes) was 3.5 mL/min/g tissue. The “in vitro clearance in liver microsomes” value ([5]; mouse) was “moderate”, the “in vitro clearance in liver microsomes” value ([5]; rat) was “moderate” and the Vd (in vivo; female, C57BL/6, mouse) was 2.6 ± 0.3 L/kg. The clearance (in vivo; female, C57BL/6, mouse) was 77.6 ± 16.8 mL/min/kg, the “clearance” value (in vivo; mouse) was “moderate” and the “volume of distribution” value (in vivo; mouse) was “moderate”.
